Experiment [1] addresses T1, human recombinant ATX (Homo sapiens, UniProt Q13822).
T1 construct: purchased Cayman Chemical
Briefly: Choline oxidase assay of LPC cleavage by ATX. Format: biochemical. The note with it: LPC 16:0 300 µM, ATX 50 nM, 2 h, 37 °C, various concentrations. The method, then: (a) Concentration–response curves for the inhibition of ATX activity as measured by the […] of the substrate lysophosphatidylcholine (LPC) using choline oxidase and peroxidase. LPC 16:0 (final concentration: 300 µM, above its critical micellar concentration [CMC]), human recombinant ATX (final concentration: 50 nM), and various concentrations of cPA analogues were used for incubation with 4-aminoantipyrine, TOOS (final concentration: 0.05% (w/v) each), choline oxidase and peroxidase (final concentration: 10 U/mL each) in the ATX assay buffer. […] Inhibition was calculated as percentage (%) of reduction in absorbance compared with absorbance in the vehicle control (without cPA analogues) after subtraction of the value measured at time 0. Data are represented as mean ± standard deviation (n = 3–4 samples). (b) Inhibition of ATX activity measured by lysophosphatidic acid (LPA 16:0) production via liquid chromatography coupled to triple quadrupole mass spectrometry (LC-QqQ). The substrate LPC 16:0 (final concentration: 300 µM) was incubated with human recombinant ATX (final concentration: 50 nM) and cPA analogues (final concentration: 10 μM) for 2 h at 37 °C. The ATX product, LPA 16:0, was quantified by LC-QqQ. Inhibition was calculated as percentage (%) of reduction in LPA production compared with LPA production in the vehicle control (without cPA analogues). Data are represented as mean ± standard deviation (n = 5–6 samples).
Human recombinant ATX (50 nM final concentration, 5 µL in ATX assay buffer: 50 mM Tris, 140 mM NaCl, 5 mM KCl, 1 mM CaCl2, 1 mM MgCl2, pH 8.0) and cPA analogues (5 µL each in ATX assay buffer) at various concentrations were added in a 96-well plate and mixed with 90 µL of LPC 16:0 (final concentration: 300 µM) as substrate, 4-aminoantipyrine, TOOS (final concentration: 0.05% w/v each), choline oxidase and peroxidase (final concentration: 10 units/mL each) in ATX assay buffer. […] Inhibition was calculated as a percentage (%) of reduction in absorbance compared to absorbance in the vehicle control (without cPA analogues) after subtraction of the value measured at time 0.

Experiment [2] concerns the target T1, human recombinant ATX. Put plainly: Hydrolysis of cPA analogues by ATX (LC-QqQ). Format: biochemical. To be noted: substrate 10 µM, ATX 50 nM, 37 °C, time-dependent. The method, then:
Analyses of LPA from cPA, 2carbaLPA from 2ccPA, and 3carbaLPA from 3ccPA were performed using LC-QqQ as per methods described previously. cPA 18:1, or 2ccPA 18:1 and 3ccPA 18:1 mixture as substrate (10 μM each) were incubated at 37 °C for 2 h with human recombinant ATX (final concentration: 50 nM) and subjected to LC-QqQ. 2carbaLPA and 3carba LPA were both detected in the negative ion mode with selected reaction monitoring (SRM) of the transition from m/z 433.27 to m/z 151.02. To separate α-LPA and the predicted β-LPA or 2carbaLPA and 3carbaLPA, LC method was performed as per previously described protocols with some modifications. Briefly, the UHPLC PEEK Inertsil ODS-3 C18 column (3 µm, 2.1 × 150 mm; GL Sciences, Tokyo, Japan) was used and the compounds were eluted with a gradient solvent system: solvent A (5 mM ammonium formate in water containing 0.0096% formic acid, pH 4.0), solvent B (5 mM ammonium formate in 95% acetonitrile/5% water containing 1.16% formic acid, pH 4.0). The analytical procedure commenced with solvent B 55% for 10 min, followed by a linear gradient 85% for 40 min that was maintained at 85% for 15 min. […] The flow rate was 0.2 mL/min at a column temperature of 40 ℃. The injection volume was 10 µL/sample.
Supplementary Figure S4. Lysophosphatidic acid (LPA) produced from cyclic phosphatidic acid (cPA), 2-carba-lysophosphatidic acid (2carbaLPA) produced from 2-carba-cyclic phosphatidic acid (2ccPA) and 3-carba-lysophosphatidic acid (3carbaLPA) produced from 3-carba-cyclic phosphatidic acid (3ccPA) by autotaxin (ATX). (a) cPA 16:0, (b) 2ccPA or (c) 3ccPA (final concentration: 10 µM each) was incubated with or without human recombinant ATX (50 nM final concentration) at 37°C. The amount of produced (a) LPA 16:0, (b) 2carbaLPA or (c) 3carbaLPA was detected using liquid chromatography with tandem mass spectrometry (LC-QqQ) and presented as peak area (counts). Data are represented as mean ± standard deviation of experiments conducted in duplicate. […]

The structures appear in SMILES notation.

For the compound `CCCCCCCC/C=C\CCCCCCCC(=O)OCC(CO)CP(=O)(O)O` (centres unmarked) [2carbaLPA 18:1, 2-carba-lysophosphatidic acid], the “Inhibition of lysoPLD activity of ATX (choline oxidase assay)” value (shortened to “Inhibition of lysoPLD activity of ATX”) at human recombinant ATX [1] is “inhibited the lysoPLD activity of ATX in a dose-dependent manner”.
Regarding `CCCCCCCC/C=C\CCCCCCCC(=O)OCC1COP(=O)(O)C1` (centres unmarked) [2ccPA 18:1, 2-carba-cyclic phosphatidic acid], the “Inhibition of lysoPLD activity of ATX” value on human recombinant ATX [1] is “inhibited the lysoPLD activity of ATX in a dose-dependent manner”. For the same compound, the “Hydrolysis by ATX” value at human recombinant ATX [2] is reported as 2ccPA to 2carbaLPA.
As for `CCCCCCCC/C=C\CCCCCCCC(=O)OC[C@@H](O)CCP(=O)(O)O` [3carba LPA 18:1, 3-carba-lysophosphatidic acid], the “Inhibition of lysoPLD activity of ATX” value on human recombinant ATX [1] is “inhibited the lysoPLD activity of ATX in a dose-dependent manner”.
As for `CCCCCCCC/C=C\CCCCCCCC(=O)OC[C@@H]1CCP(=O)(O)O1` [3ccPA 18:1, 3-carba-cyclic phosphatidic acid], the “Inhibition of lysoPLD activity of ATX” value on human recombinant ATX [1] is “lower inhibitory activity than the other analogues, except for LPA and cPA”. Besides, on human recombinant ATX [2], the “Hydrolysis by ATX” value is “hydrolysed to 3carbaLPA by ATX”.
With `CCCCCCCC/C=C\CCCCCCCC(=O)OC[C@@H]1COP(=O)(O)O1` [cPA 18:1, 1-Oleoyl-cPA], the “Inhibition of lysoPLD activity of ATX” value at human recombinant ATX [1] was “significantly lower inhibitory activity”. For the same compound, the “Hydrolysis by ATX” value on human recombinant ATX [2] was “hydrolyses cPA to LPA”.
